Patent US20250171495A1, “MUTLI-TARGETED SERINE PROTEASE INHIBITORS FOR TREATMENT OF CANCER AND VIRAL INFECTION” (Washington University, priority 2023, published 2025)
Read-outs that look alike come from different tables or passages of the source.

How the values were obtained:
Type in all cases: biochemical
TMPRSS2 = TMPRSS2 (Homo sapiens, UniProt O15393); test: Fluorogenic kinetic enzyme inhibitor assay, TMPRSS2; set-up: purchased Cusabio Technology CSB-YP023924HU
hepsin = target: T1, hepsin (Homo sapiens, UniProt P05981); test: Fluorogenic kinetic enzyme inhibitor assay, hepsin
T1 construct: purchased R&D Systems 4776-SE-010
T1 sequence (P05981 163-417 limits assumed): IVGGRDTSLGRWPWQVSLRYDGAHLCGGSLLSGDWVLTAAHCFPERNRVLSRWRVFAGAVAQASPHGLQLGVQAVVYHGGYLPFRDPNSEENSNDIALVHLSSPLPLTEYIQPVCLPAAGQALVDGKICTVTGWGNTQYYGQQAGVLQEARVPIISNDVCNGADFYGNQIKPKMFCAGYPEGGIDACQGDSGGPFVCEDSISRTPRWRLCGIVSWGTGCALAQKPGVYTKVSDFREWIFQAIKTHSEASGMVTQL
T1 sequence (P05981 1-162 partner limits assumed): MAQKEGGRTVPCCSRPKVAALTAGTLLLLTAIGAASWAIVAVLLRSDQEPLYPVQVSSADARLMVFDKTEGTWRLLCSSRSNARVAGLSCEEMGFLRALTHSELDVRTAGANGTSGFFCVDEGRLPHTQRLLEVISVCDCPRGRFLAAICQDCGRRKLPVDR

matriptase = target: T2, matriptase (Homo sapiens, UniProt Q9Y5Y6); test: Fluorogenic kinetic enzyme inhibitor assay, matriptase
T2 construct: purchased R&D Systems 3946-SEB-010
T2 sequence (Q9Y5Y6 615-855 limits assumed): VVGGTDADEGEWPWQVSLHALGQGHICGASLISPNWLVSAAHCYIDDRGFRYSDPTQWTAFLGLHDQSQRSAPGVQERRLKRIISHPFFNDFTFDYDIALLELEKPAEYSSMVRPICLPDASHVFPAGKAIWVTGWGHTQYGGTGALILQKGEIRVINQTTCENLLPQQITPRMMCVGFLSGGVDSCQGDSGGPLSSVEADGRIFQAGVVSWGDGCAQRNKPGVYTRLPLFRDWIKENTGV

TMPRSS2, sequence (O15393 106-492 limits assumed): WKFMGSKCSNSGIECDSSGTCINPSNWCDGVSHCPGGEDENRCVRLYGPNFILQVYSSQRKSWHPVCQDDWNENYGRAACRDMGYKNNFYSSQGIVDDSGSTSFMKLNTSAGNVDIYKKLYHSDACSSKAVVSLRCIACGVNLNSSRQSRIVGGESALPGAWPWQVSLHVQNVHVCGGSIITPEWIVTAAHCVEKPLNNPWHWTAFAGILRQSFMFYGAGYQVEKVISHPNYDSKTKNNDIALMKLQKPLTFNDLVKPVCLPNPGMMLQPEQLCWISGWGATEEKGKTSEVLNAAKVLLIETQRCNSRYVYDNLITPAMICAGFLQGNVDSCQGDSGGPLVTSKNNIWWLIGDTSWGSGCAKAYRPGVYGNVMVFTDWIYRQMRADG

SMILES | IC50 (TMPRSS2; read-out: TMPRSS2 IC50) [nM] | IC50 (hepsin; read-out: Hepsin IC50) [nM] | IC50 (matriptase; read-out: Matriptase IC50) [nM] | IC50 (matriptase) [nM] | IC50 (TMPRSS2) [nM] | IC50 (hepsin) [nM]
CC(=O)N[C@@H](CO)C(=O)NCc1ccc(CC(=O)N[C@@H](CC(C)C)C(=O)N[C@@H](CCCNC(=N)N)C(=O)c2nc3ccccc3s2)cc1 [AJS3200, N-[(S)-1-[(1,3-benzothiazol-2-yl)carbonyl]-4-guanidinobutyl](S)-2-{[(p-{[(S)-2-acetylamino-3-hydroxypropionylamino]methyl}phenyl)methyl]carbonylamino}-4-methylvaleramide] | 0.376 | 2.81 | 9.52 |  |  | 
CC(=O)N[C@@H](CO)C(=O)NCc1ccc(C(=O)N[C@@H](CC(C)C)C(=O)N[C@@H](CCCNC(=N)N)C(=O)c2nc3ccccc3s2)cc1 [AJS4016] | 0.067 | 21.8 | 10.3 |  |  | 
CC(=O)N1C(C(=O)N[C@@H](CCC(=O)OC2CCCCC2)C(=O)N[C@@H](Cc2ccc(F)cc2)C(=O)N[C@@H](CCCNC(=N)N)C(=O)c2nc3ccccc3s2)CC2CCCCC21 (stereo partly drawn) [MF1064, cyclohexyl (S)-4-[(2R)-1-acetyloctahydro-2H-indol-2-ylcarbonylamino]-4-[N-(S)-2-(p-fluorophenyl)-1-[N-(S)-1-[(1,3-benzothiazol-2-yl)carbonyl]-4-guanidinobutylcarbamoyl]ethylcarbamoyl]butyrate] | 0.004 | 0.831 |  | 1.23 |  | 
CC(=O)N1c2ccccc2C[C@H]1C(=O)N[C@@H](CCC(=O)OC1CCCCC1)C(=O)N[C@@H](Cc1ccc(F)cc1)C(=O)N[C@@H](CCCNC(=N)N)C(=O)c1nc2ccccc2s1 [MF1065, cyclohexyl (S)-4-[(S)-1-acetyl-2-indolinylcarbonylamino]-4-[N-(S)-2-(p-fluorophenyl)-1-[N-(S)-1-[(1,3-benzothiazol-2-yl)carbonyl]-4-guanidinobutylcarbamoyl]ethylcarbamoyl]butyrate] |  |  |  | 3.49 | 0.062 | 1.76
C=CCOC(=O)CC[C@H](NC(=O)[C@@H]1CC2CCCCC2N1C(C)=O)C(=O)N[C@@H](Cc1ccc(F)cc1)C(=O)N[C@@H](CCCNC(=N)N)C(=O)c1nc2ccccc2s1 (stereo partly drawn) [MF1068, allyl (S)-4-[(2S)-1-acetyloctahydro-2H-indol-2-ylcarbonylamino]-4-[N-(S)-2-(p-fluorophenyl)-1-[N-(S)-1-[(1,3-benzothiazol-2-yl)carbonyl]-4-guanidinobutylcarbamoyl]ethylcarbamoyl]butyrate] | 0.083 | 0.308 |  | 0.375 |  | 
N=C(N)NCCC[C@H](NC(=O)[C@H](Cc1ccccc1)NC(=O)[C@H](CCC(N)=O)NS(=O)(=O)c1ccccc1)C(=O)c1nc2ccccc2s1 [MF1101, N-[(S)-1-[N-(S)-1-[(1,3-benzothiazol-2-yl)carbonyl]-4-guanidinobutylcarbamoyl]-2-phenylethyl](S)-2-(phenylsulfonylamino) glutaramide] | 1.02 | 0.8 | 2.89 |  |  | 
N=C(N)NCCC[C@H](NC(=O)[C@H](Cc1ccccc1)NC(=O)[C@H](CCC(N)=O)NS(=O)(=O)C1CC1)C(=O)c1nc2ccccc2s1 [MF1104, N-[(S)-1-[N-(S)-1-[(1,3-benzothiazol-2-yl)carbonyl]-4-guanidinobutylcarbamoyl]-2-phenylethyl](S)-2-(cyclopropylsulfonylamino) glutaramide] | 0.273 | 1.07 | 5.59 |  |  | 
N=C(N)NCCC[C@H](NC(=O)[C@H](Cc1ccccc1)NC(=O)[C@H](CCC(N)=O)NS(=O)(=O)Cc1ccccc1)C(=O)c1nc2ccccc2s1 [MF1105, N-[(S)-1-[N-(S)-1-[(1,3-benzothiazol-2-yl)carbonyl]-4-guanidinobutylcarbamoyl]-2-phenylethyl](S)-2-(benzylsulfonylamino) glutaramide] | 0.07 | 0.31 | 1.48 |  |  | 
CC(=O)N[C@@H](CCC(C)C)C(=O)N[C@@H](CCC(=O)OC1CCCCC1)C(=O)N[C@@H](Cc1ccc(F)cc1)C(=O)N[C@@H](CCCNC(=N)N)C(=O)c1nc2ccccc2s1 [MF1125, cyclohexyl (S)-4-[(S)-1-acetylamino-4-methylpentylcarbonylamino]-4-[N-(S)-2-(p-fluorophenyl)-1-[N-(S)-1-[(1,3-benzothiazol-2-yl)carbonyl]-4-guanidinobutylcarbamoyl]ethylcarbamoyl]butyrate] |  |  |  | 3.05 | 0.085 | 3.5
N=C(N)NCCC[C@H](NC(=O)[C@H](Cc1ccc(F)cc1)NC(=O)OCC1c2ccccc2-c2ccccc21)C(=O)c1nc2ccccc2s1 [MF1131, (S)-2-(p-fluorophenyl)-1-[N-(S)-1-[(1,3-benzothiazol-2-yl)carbonyl]-4-guanidinobutylcarbamoyl]ethyl (9H-fluoren-9-yl)methanecarbamate] | 14 | 1130 | 967 |  |  | 
N=C(N)NCCC[C@H](NC(=O)[C@H](Cc1ccc(F)c(F)c1)NC(=O)OCC1c2ccccc2-c2ccccc21)C(=O)c1nc2ccccc2s1 [MF1132, (S)-2-(3,4-difluorophenyl)-1-[N-(S)-1-[(1,3-benzothiazol-2-yl)carbonyl]-4-guanidinobutylcarbamoyl]ethyl (9H-fluoren-9-yl)methanecarbamate] | 28.6 | 231 | 144 |  |  | 
N=C(N)NCCC[C@H](NC(=O)[C@H](CCCCNC(=O)OCc1ccccc1Cl)NC(=O)OCC1c2ccccc2-c2ccccc21)C(=O)c1nc2ccccc2s1 [MF1151, (S)-5-{[(o-chlorophenyl)methyl] (oxycarbonylamino)}-1-[N-(S)-1-[(1,3-benzothiazol-2-yl)carbonyl]-4-guanidinobutylcarbamoyl] pentyl (9H-fluoren-9-yl)methanecarbamate] | 283 |  | 11.1 |  |  | 
N=C(N)NCCC[C@H](NC(=O)[C@@H](NC(=O)OCc1ccccc1)C1Cc2ccccc2C1)C(=O)c1nc2ccccc2s1 [MF2008, (S)-(2-indanyl)[N-(S)-1-[(1,3-benzothiazol-2-yl)carbonyl]-4-guanidinobutylcarbamoyl] methyl-phenylmethanecarbamate] | 0.303 |  | 75.3 |  |  | 
CC(C)(C)C[C@H](NC(=O)OCc1ccccc1)C(=O)N[C@@H](CCCNC(=N)N)C(=O)c1nc2ccccc2s1 [MF2009, (S)-3,3-dimethyl-1-[N-(S)-1-[(1,3-benzothiazol-2-yl)carbonyl]-4-guanidinobutylcarbamoyl] butyl-phenylmethanecarbamate] | 614 |  | > 20000 |  |  | 
N=C(N)NCCC[C@H](NC(=O)[C@H](Cc1ccc2ccccc2c1)NC(=O)OCC1c2ccccc2-c2ccccc21)C(=O)c1nc2ccccc2s1 [MF2012, (S)-2-(2-naphthyl)-1-[N-(S)-1-[(1,3-benzothiazol-2-yl)carbonyl]-4-guanidinobutylcarbamoyl] ethyl (9H-fluoren-9-yl)methanecarbamate] | 187 |  | > 20000 |  |  | 
CC(=O)N[C@H]1Cc2ccc(cc2)Oc2ccc(cc2)C[C@@H](C(=O)N[C@@H](CCCNC(=N)N)C(=O)c2nc3ccccc3s2)NC(=O)[C@H](CC(C)C)NC1=O [VD5076B, N-[(S)-1-[(1,3-benzothiazol-2-yl)carbonyl]-4-guanidinobutyl]-(8S,11S,14S)-14-acetylamino-11-isobutyl-10,13-dioxo-2-oxa-9,12-diazatricyclo[14.2.2.2^3,^6]docosa-1(18),3,5,16,19,21-hexaene-8-carboxamide] | 1.25 |  |  |  |  | 
